# Test results as given in patent publication US20250171511A1, “ANTIVIRAL PEPTIDES AND METHODS OF USE THEREOF” (Versitech Limited, priority 2021, published 2025).
# Where a SMILES comes first, the peptide text is derived from it.
# Legend:
# [1] = Solubility of peptide in water; assay type: physicochemical
# Description: H23, H26, H30, 2H30, and 4H30 shown in Table 1 were synthesized by ChinaPeptide (Shanghai, China). All peptides were dissolved in water. The solubility of peptide in water is greater than 5 mg ml^−1. The purity of all peptides was >80%. The purity and mass of each peptide were verified by HPLC and mass spectrometry.
# VeroE6 cells = assay: Endosomal acidification assay; assay type: cell-based
# Description: Endosomal acidification was detected with a pH-sensitive dye (pHrodo green dextran, Invitrogen, Cat^# P35365) according to the manufacturer's instructions as previously described but with slight modification (H. Zhao, et al., Nat Commun, 9 (2018) 2358). First, VeroE6 cells were treated with DMEM, 4H30 (25.0 μg ml^−1), or bafilomycin A1 (50.0 nM) at 4° C. for 15 min. Second, VeroE6 cells were added with 100 μg ml^−1 of pH-sensitive dye and DAPI and then incubated at 4° C. for 15 min. Before taking images, cells were further incubated at 37° C. for 15 min and then cells were washed twice with PBS. Finally, PBS was added to cells and images were taken immediately with confocal microscope (Carl Zeiss LSM 800, Germany).
# [2] = tested on: spike-ACE2 mediated fusion; assay type: cell-based; details: endocytosis pathway
# [3] = molecular target: SARS-CoV-2 spike (SARS-CoV-2), P0DTC2; assay: cell-based or functional assay
Molecule,solubility [1],further results
CC[C@H](C)[C@H](NC(=O)[C@H](CCC(N)=O)NC(=O)[C@H](CCCCN)NC(=O)[C@H](Cc1ccc(O)cc1)NC(=O)[C@H](CCCNC(=N)N)NC(=O)[C@H](CCCNC(=N)N)NC(=O)[C@@H]1CCCN1C(=O)[C@H](CS)NC(=O)[C@H](Cc1ccccc1)NC(=O)[C@@H](NC(=O)[C@@H]1CCCN1C(=O)[C@H](Cc1c[nH]cn1)NC(=O)[C@@H](N)CS)C(C)C)C(=O)NCC(=O)N[C@H](C(=O)N[C@@H](CS)C(=O)NCC(=O)N[C@@H](CC(C)C)C(=O)N1CCC[C@H]1C(=O)NCC(=O)N[C@H](C(=O)N[C@@H](CCCCN)C(=O)N[C@@H](CS)C(=O)O)[C@@H](C)O)[C@@H](C)O [Peptide H23] (H-CHPVFCPRRYKQIGTCGLPGTKC-OH; N-terminus and C-terminus assumed),> 5000 µg/mL,–
CC[C@H](C)[C@H](NC(=O)[C@H](CCC(N)=O)NC(=O)[C@H](CCCCN)NC(=O)[C@H](Cc1ccc(O)cc1)NC(=O)[C@H](CCCNC(=N)N)NC(=O)[C@H](CCCNC(=N)N)NC(=O)[C@@H]1CCCN1C(=O)[C@H](CS)NC(=O)[C@H](Cc1ccccc1)NC(=O)[C@@H](NC(=O)[C@@H]1CCCN1C(=O)[C@H](Cc1c[nH]cn1)NC(=O)[C@@H](N)CS)C(C)C)C(=O)NCC(=O)N[C@H](C(=O)N[C@@H](CS)C(=O)NCC(=O)N[C@@H](CC(C)C)C(=O)N1CCC[C@H]1C(=O)NCC(=O)N[C@H](C(=O)N[C@@H](CCCCN)C(=O)N[C@@H](CS)C(=O)N[C@@H](CS)C(=O)N[C@@H](CCCCN)C(=O)N[C@@H](CCCCN)C(=O)O)[C@@H](C)O)[C@@H](C)O [Peptide H26] (H-CHPVFCPRRYKQIGTCGLPGTKCCKK-OH; N-terminus and C-terminus assumed),> 5000 µg/mL,–
CC[C@H](C)[C@H](NC(=O)[C@H](C)NC(=O)CN)C(=O)N[C@@H](CS)C(=O)N[C@@H](Cc1c[nH]cn1)C(=O)N1CCC[C@H]1C(=O)N[C@H](C(=O)N[C@@H](Cc1ccccc1)C(=O)N[C@@H](CS)C(=O)N1CCC[C@H]1C(=O)N[C@@H](CCCNC(=N)N)C(=O)N[C@@H](CCCNC(=N)N)C(=O)N[C@@H](Cc1ccc(O)cc1)C(=O)N[C@@H](CCCCN)C(=O)N[C@@H](CCC(N)=O)C(=O)N[C@H](C(=O)NCC(=O)N[C@H](C(=O)N[C@@H](CS)C(=O)NCC(=O)N[C@@H](CC(C)C)C(=O)N1CCC[C@H]1C(=O)NCC(=O)N[C@H](C(=O)N[C@@H](CCCCN)C(=O)N[C@@H](CS)C(=O)N[C@@H](CS)C(=O)N[C@@H](CCCCN)C(=O)N[C@@H](CCCCN)C(=O)N1CCC[C@H]1C(=O)O)[C@@H](C)O)[C@@H](C)O)[C@@H](C)CC)C(C)C [Peptide H30] (H-GAICHPVFCPRRYKQIGTCGLPGTKCCKKP-OH; N-terminus and C-terminus assumed),> 5000 µg/mL,–
"CO/C1=C\C(C)=C\[C@@H](C)[C@@H](O)[C@@H](C)C/C(C)=C/C=C/[C@H](OC)[C@@H]([C@@H](C)[C@@H](O)[C@H](C)[C@@]2(O)C[C@@H](O)[C@H](C)[C@@H](C(C)C)O2)OC1=O [bafilomycin Al, bafilomycin A1, reference compound]",–,endosomal acidification (VeroE6 cells): inhibiting endosomal acidification; spike-ACE2 mediated cell fusion [2]: inhibiting endosomal acidification and cell fusion
GAICHPVFCPRRYKQIGTCGLPGTKCCKKP (modifications not checked) [four branched H30 (4H30)],–,"IC50 of inhibition of SARS-CoV-2 infection, plaque reduction assay in PBS [3]: 0.59 µg/mL"
